# Experimental data: ChEMBL document CHEMBL2086246, “Synthesis and optimization of substituted furo[2,3-d]-pyrimidin-4-amines and 7H-pyrrolo[2,3-d]pyrimidin-4-amines as ACK1 inhibitors” (Bioorg Med Chem Lett, 2012)
# The source made the active and inactive calls. The rule behind the calls is not given here.
# Key:
# Activated CDC42 kinase 1 [1] = target: T1, Activated CDC42 kinase 1 (Homo sapiens, UniProt Q07912); assay: Inhibition of N-terminal His6-tagged ACK1 expressed in baculovirus infected Hi5 cells assessed as inhibition of autophosphorylation after 2 hrs by ELISA; design: species or system BTI-TN-5B1-4
# Target sequence in this assay (Q07912 whole entry): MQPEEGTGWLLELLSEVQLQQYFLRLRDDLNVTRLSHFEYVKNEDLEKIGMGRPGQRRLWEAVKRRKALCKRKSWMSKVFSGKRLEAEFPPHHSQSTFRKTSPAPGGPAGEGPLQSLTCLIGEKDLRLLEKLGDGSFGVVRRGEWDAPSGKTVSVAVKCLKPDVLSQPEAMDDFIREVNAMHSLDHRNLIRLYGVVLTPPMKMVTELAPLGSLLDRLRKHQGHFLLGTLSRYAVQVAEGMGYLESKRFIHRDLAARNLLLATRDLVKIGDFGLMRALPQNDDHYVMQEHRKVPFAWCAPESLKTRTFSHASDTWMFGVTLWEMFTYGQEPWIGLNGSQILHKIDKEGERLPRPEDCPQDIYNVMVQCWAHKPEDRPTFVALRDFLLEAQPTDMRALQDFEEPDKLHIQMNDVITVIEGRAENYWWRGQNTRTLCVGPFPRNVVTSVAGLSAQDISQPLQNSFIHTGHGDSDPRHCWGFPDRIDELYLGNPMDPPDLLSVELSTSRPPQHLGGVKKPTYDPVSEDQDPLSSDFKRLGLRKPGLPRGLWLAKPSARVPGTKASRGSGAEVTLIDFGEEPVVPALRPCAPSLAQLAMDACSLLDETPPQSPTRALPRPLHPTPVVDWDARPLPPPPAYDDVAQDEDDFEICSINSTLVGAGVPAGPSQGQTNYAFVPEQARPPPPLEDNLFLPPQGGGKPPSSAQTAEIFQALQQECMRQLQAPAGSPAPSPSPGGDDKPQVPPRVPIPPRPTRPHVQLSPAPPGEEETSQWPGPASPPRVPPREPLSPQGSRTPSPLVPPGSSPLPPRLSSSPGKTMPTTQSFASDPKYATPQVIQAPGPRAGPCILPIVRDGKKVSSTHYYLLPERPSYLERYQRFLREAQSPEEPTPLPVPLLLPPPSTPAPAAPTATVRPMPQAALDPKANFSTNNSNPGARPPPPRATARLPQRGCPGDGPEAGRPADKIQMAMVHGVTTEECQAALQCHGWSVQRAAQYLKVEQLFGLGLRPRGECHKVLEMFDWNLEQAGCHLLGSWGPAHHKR
# Activated CDC42 kinase 1 [2] = target: T1, Activated CDC42 kinase 1; assay: Reversible inhibition of ACK1
# Target sequence in this assay (Q07912 whole entry, looked up): as the sequence (Q07912 whole entry) above
# Activated CDC42 kinase 1 [3] = target: T1, Activated CDC42 kinase 1; assay: Inhibition of ACK1
# Target sequence in this assay (Q07912 whole entry): as above
# Activated CDC42 kinase 1 [4] = target: T1, Activated CDC42 kinase 1; assay: Competitive inhibition of ACK1 using ATP
# Target sequence in this assay (Q07912 whole entry, looked up): as the sequence (Q07912 whole entry) above
# [5] = Mean residence time in Sprague-Dawley rat at 1 mg/kg, iv; assay type: ADME, organism-based; design: dose 1 mg/kg, route intravenous; conditions: in vivo
# [6] = Volume of distribution at steady state in Sprague-Dawley rat at 1 mg/kg, iv; assay type: ADME, organism-based; design: dose 1 mg/kg, route intravenous; conditions: in vivo, read-out: Vdss
# [7] = Drug metabolism in rat liver S9 fraction assessed as dithiolane ring oxidation; assay type: ADME, subcellular
# [8] = Drug metabolism in rat liver S9 fraction assessed as dimethylamino oxidation; assay type: ADME, subcellular
# [9] = Clearance in Sprague-Dawley rat at 1 mg/kg, iv; assay type: ADME, organism-based; design: dose 1 mg/kg, route intravenous; conditions: in vivo
# [10] = target: T2, Tyrosine-protein kinase JAK3 (Homo sapiens, UniProt P52333); assay: Inhibition of JAK3
# T2 sequence (P52333 whole entry): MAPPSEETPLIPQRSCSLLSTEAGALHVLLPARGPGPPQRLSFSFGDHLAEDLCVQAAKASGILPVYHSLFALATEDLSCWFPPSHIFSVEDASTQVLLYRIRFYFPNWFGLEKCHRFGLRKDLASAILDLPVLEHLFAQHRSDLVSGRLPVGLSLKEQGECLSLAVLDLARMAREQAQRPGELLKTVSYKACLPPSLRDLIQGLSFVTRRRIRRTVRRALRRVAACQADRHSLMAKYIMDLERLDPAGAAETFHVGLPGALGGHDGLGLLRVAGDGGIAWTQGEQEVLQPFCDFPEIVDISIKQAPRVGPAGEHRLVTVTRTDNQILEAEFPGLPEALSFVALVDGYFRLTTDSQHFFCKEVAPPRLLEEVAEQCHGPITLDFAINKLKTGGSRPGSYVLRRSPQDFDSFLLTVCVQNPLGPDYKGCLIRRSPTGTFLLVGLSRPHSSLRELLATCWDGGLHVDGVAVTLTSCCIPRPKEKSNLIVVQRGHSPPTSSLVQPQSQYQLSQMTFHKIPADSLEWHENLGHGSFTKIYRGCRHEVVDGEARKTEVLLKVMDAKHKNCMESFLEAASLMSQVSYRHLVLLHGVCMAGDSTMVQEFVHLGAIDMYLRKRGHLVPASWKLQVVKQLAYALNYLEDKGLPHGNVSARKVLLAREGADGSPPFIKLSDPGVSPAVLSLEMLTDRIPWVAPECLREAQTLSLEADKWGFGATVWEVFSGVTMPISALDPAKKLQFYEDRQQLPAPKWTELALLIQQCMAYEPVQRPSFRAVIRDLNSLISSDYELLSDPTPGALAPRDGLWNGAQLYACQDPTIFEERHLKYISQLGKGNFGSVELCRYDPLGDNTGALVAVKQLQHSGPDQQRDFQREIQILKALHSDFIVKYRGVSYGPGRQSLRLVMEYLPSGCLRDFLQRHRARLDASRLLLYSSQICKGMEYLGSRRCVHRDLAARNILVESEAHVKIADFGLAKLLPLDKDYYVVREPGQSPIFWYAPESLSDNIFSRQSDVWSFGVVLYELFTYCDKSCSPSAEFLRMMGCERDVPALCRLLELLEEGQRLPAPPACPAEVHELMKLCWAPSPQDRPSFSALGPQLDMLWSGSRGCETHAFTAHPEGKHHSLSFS
# [11] = target: Tyrosine-protein kinase Lck (Homo sapiens, UniProt P06239); assay: Inhibition of LCK
# [12] = target: Vascular endothelial growth factor receptor 2 (Homo sapiens, UniProt P35968); assay: Inhibition of KDR
# Angiopoietin-1 receptor = Angiopoietin-1 receptor (Homo sapiens, UniProt Q02763); assay: Inhibition of TIE2
# Activated CDC42 kinase 1 [13] = target: Activated CDC42 kinase 1 (Mus musculus, UniProt O54967); assay: Inhibition of ACK1 in mouse C8 cells assessed as decrease in cell viability after 20 to 24 hrs; assay type: cell-based
# Chain of Activated CDC42 kinase 1 (Mus musculus, UniProt O54967) (O54967 whole entry): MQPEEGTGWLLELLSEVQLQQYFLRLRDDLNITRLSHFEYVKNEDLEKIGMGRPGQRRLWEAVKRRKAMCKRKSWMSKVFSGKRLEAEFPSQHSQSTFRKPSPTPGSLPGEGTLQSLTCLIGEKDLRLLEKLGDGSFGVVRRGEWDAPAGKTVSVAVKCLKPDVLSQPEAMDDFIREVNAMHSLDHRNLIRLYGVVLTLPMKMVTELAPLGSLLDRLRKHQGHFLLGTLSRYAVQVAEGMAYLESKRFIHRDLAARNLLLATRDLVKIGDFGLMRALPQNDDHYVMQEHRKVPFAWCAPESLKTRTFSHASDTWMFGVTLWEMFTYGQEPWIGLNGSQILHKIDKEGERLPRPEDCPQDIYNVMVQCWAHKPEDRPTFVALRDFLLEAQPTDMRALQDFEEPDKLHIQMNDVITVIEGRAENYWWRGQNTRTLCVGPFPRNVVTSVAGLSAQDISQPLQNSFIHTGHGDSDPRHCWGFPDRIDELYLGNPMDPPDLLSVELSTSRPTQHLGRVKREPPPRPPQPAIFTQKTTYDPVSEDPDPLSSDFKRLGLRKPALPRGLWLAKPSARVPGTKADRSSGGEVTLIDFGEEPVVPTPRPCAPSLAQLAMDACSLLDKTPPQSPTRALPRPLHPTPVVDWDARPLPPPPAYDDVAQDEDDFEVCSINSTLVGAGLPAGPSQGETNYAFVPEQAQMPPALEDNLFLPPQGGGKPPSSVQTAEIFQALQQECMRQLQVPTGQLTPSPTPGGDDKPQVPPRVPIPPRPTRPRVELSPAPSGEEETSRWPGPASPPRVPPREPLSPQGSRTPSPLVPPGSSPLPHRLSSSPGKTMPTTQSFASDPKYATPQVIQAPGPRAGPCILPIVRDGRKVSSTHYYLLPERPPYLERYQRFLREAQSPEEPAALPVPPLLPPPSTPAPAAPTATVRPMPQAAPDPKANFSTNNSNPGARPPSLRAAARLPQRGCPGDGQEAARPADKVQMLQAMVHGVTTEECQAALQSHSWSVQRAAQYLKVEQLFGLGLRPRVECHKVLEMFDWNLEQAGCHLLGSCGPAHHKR
# Chain of Vascular endothelial growth factor receptor 2 (P35968 whole entry): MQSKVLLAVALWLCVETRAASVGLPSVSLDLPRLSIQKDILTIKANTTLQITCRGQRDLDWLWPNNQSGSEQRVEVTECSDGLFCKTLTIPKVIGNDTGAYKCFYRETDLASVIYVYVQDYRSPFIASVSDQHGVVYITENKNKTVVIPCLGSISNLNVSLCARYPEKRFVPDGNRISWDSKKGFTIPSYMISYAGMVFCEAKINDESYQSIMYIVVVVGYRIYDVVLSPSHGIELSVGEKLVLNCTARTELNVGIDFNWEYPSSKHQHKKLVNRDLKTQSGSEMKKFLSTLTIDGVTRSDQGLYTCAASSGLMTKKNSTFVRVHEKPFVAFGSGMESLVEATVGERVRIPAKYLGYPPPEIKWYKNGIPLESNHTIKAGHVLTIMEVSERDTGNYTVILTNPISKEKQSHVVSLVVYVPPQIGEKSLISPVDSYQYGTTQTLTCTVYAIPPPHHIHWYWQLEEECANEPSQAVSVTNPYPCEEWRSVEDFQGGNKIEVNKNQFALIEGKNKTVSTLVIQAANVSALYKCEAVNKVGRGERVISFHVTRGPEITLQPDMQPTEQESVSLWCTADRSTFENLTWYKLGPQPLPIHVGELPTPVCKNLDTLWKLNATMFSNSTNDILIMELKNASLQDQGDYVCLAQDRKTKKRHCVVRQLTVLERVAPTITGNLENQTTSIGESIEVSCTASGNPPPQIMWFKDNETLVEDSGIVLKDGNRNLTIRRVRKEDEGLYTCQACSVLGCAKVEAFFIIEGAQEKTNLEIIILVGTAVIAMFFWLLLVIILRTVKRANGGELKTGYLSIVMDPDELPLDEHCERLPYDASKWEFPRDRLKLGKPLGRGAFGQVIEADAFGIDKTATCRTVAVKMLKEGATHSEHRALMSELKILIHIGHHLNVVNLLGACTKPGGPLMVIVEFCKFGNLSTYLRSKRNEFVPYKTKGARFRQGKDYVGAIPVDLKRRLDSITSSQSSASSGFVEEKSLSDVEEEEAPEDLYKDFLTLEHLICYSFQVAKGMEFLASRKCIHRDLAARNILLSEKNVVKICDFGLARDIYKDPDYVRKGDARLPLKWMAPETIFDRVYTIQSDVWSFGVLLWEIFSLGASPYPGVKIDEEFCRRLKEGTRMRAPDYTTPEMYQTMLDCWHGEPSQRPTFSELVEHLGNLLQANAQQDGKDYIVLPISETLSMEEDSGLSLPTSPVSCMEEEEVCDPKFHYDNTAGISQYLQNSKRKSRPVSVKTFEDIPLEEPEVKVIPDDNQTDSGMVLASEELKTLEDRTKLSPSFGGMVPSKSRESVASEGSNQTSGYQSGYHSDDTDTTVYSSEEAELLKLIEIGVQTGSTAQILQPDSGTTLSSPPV
# Chain of Angiopoietin-1 receptor (Q02763 whole entry): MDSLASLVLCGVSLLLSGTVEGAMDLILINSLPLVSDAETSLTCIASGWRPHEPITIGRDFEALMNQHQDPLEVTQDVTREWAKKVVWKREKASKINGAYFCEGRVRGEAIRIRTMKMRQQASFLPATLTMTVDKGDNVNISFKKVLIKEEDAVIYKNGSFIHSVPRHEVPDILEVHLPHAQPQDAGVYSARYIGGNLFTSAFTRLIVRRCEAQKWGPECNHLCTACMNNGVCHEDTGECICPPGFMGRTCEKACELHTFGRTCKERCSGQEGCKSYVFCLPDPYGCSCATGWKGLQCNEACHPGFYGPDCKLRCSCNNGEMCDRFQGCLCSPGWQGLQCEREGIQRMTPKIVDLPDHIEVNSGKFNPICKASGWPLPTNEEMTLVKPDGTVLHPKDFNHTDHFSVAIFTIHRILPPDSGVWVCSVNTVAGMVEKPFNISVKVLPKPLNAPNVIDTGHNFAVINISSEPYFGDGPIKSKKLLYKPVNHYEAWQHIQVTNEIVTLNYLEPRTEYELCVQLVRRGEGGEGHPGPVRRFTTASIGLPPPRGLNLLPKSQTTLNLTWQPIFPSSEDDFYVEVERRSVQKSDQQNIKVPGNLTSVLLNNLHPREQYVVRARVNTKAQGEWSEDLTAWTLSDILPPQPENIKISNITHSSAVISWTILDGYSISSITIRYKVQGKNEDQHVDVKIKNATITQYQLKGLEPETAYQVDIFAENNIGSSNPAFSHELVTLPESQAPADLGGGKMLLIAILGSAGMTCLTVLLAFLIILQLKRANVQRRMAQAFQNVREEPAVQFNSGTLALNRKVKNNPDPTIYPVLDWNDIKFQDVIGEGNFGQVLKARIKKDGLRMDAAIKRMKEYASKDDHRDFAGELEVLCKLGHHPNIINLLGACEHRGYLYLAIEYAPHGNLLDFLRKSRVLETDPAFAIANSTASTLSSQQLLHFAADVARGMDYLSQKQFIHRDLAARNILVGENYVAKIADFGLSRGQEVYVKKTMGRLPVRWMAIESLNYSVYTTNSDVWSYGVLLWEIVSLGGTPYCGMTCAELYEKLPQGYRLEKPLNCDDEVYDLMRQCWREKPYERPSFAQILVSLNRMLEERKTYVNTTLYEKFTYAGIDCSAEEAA
Compound,Ki (Activated CDC42 kinase 1 [1]) [nM],also measured
CN(C)CCOc1ccc(-c2[nH]c3ncnc(NC[C@@H]4CCCO4)c3c2C2=CCCC2)cc1,20,–
CN(C)CCOc1ccc(-c2oc3ncnc(NCC4CCCS4)c3c2-c2ccccc2)cc1 (racemic),8,–
CN(C)CCOc1ccc(-c2[nH]c3ncnc(NC[C@@H]4CC[C@H]4O)c3c2-c2ccccc2)cc1 (racemic),30,–
CN(C)C(=O)c1ccc(-c2oc3ncnc(NC[C@@H]4CCCO4)c3c2-c2ccccc2)cc1,10,–
Nc1ncnc2oc(-c3ccccc3)c(-c3ccccc3)c12,–,inhibition (Activated CDC42 kinase 1 [2]): Active; Ki (Activated CDC42 kinase 1 [3]): 1000 nM; inhibition (Activated CDC42 kinase 1 [4]): Active
COc1cccc(-c2c(-c3ccc(OCCN4CCCC4)cc3)[nH]c3ncnc(NC[C@@H]4CCCO4)c23)c1,10,–
O=C(c1ccc(-c2[nH]c3ncnc(NC[C@@H]4CCCO4)c3c2-c2ccccc2)cc1)N1CCOCC1,6,–
CNS(=O)(=O)c1ccc(-c2[nH]c3ncnc(NC[C@@H]4CCCO4)c3c2-c2ccccc2)cc1,2,–
CN(C)CCOc1ccc(-c2[nH]c3ncnc(NC[C@@H]4CCCO4)c3c2C2=CCCCC2)cc1,10,–
CN(C)CCOc1ccc(-c2[nH]c3ncnc(NC[C@@H]4CCCO4)c3c2-c2ccccc2)cc1,6,–
CN(C)CCOc1ccc(-c2[nH]c3ncnc(NCC4SCCS4)c3c2-c2ccccc2)cc1,–,MRT [5]: 3.6 h; Vd [6]: 26.6 L/kg; Drug metabolism [7]: Active; Drug metabolism [8]: Active; clearance [9]: 125 mL/min/kg
CN(C)CCOc1ccc(-c2oc3ncnc(NC[C@@H]4CCCO4)c3c2-c2ccccc2)cc1,5,–
c1ccc(-c2c(-c3ccc(OCCN4CCCC4)cc3)[nH]c3ncnc(NCC4SCCS4)c23)cc1,0.3,MRT [5]: 2.3 h; Ki [10]: 6.5 nM; Ki [11]: 138 nM; Ki [12]: 380 nM; Vd [6]: 15.6 L/kg; Ki (Angiopoietin-1 receptor): 200 nM; clearance [9]: 113 mL/min/kg
Cc1ccccc1-c1c(-c2ccc(OCCN3CCCC3)cc2)[nH]c2ncnc(NC[C@@H]3CCCO3)c12,20,–
c1ccc(-c2c(-c3ccc(OCCN4CCOCC4)cc3)[nH]c3ncnc(NC[C@@H]4CCCO4)c23)cc1,6,–
O=C(c1ccc(-c2oc3ncnc(NC[C@@H]4CCCO4)c3c2-c2ccccc2)cc1)N1CCOCC1,6,–
O=C1CCCN1CCOc1ccc(-c2oc3ncnc(NC[C@@H]4CCCO4)c3c2-c2ccccc2)cc1,4,–
COc1ccc(-c2oc3ncnc(NC[C@@H]4CCCO4)c3c2-c2ccccc2)cc1,5,–
CN(C)S(=O)(=O)c1ccc(-c2[nH]c3ncnc(NC[C@@H]4CCCO4)c3c2-c2ccccc2)cc1,2,–
c1ccc(-c2nc3ncnc(NC[C@@H]4CCCO4)c3n2-c2ccccc2)cc1,7300,–
O=C1CCCN1CCOc1ccc(-c2[nH]c3ncnc(NC[C@@H]4CCCO4)c3c2-c2ccccc2)cc1,4,–
CNC(=O)c1ccc(-c2[nH]c3ncnc(NC[C@@H]4CCCO4)c3c2-c2ccccc2)cc1,3,–
c1ccc(-c2c(-c3ccc(OCCN4CCOCC4)cc3)oc3ncnc(NC[C@@H]4CCCO4)c23)cc1,4,–
CN(C)CCOc1ccc(-c2[nH]c3ncnc(NC[C@@H]4CCCO4)c3c2C2CC2)cc1,1980,IC50 (Activated CDC42 kinase 1 [13]): Not Active
c1ccc(-c2oc3nccc(NC[C@@H]4CCCO4)c3c2-c2ccccc2)cc1,70,–
c1ccc(-c2[nH]c3ncnc(NC[C@@H]4CCCO4)c3c2-c2ccccc2)cc1,6,–
CO[C@@H]1CCC[C@H]1CNc1ncnc2[nH]c(-c3ccc(OCCN(C)C)cc3)c(-c3ccccc3)c12,50,–
CN(C)C(=O)c1ccc(-c2[nH]c3ncnc(NC[C@@H]4CCCO4)c3c2-c2ccccc2)cc1,2,–
CNC(=O)c1ccc(-c2oc3ncnc(NC[C@@H]4CCCO4)c3c2-c2ccccc2)cc1,13,–
CO[C@@H]1CCC[C@@H]1CNc1ncnc2[nH]c(-c3ccc(OCCN(C)C)cc3)c(-c3ccccc3)c12,50,–

# Now from value to molecule, other results behind:
Ki (Activated CDC42 kinase 1 [1]) [nM],Compound,also measured
69,CN(C)CCOc1ccc(-c2oc3ncnc(NC[C@@H]4CCCCS4)c3c2-c2ccccc2)cc1,–
40,c1cncc(-c2c(-c3ccc(OCCN4CCCC4)cc3)[nH]c3ncnc(NC[C@@H]4CCCO4)c23)c1,–
6,COc1ccc(-c2[nH]c3ncnc(NC[C@@H]4CCCO4)c3c2-c2ccccc2)cc1,–
4,CN(C)CCOc1ccc(-c2oc3ncnc(NCC4SCCCS4)c3c2-c2ccccc2)cc1,–
7,CS(=O)(=O)c1ccc(-c2[nH]c3ncnc(NC[C@@H]4CCCO4)c3c2-c2ccccc2)cc1,–
> 10000,c1ccc(-c2sc3ncnc(NC[C@@H]4CCCO4)c3c2-c2ccccc2)cc1,–
1800,c1ccc(-c2nc3ncnc(NC[C@@H]4CCCO4)n3c2-c2ccccc2)cc1,–
13,CN(C)CCOc1ccc(-c2oc3ncnc(NCC4OCCO4)c3c2-c2ccccc2)cc1,–
4,CNS(=O)(=O)c1ccc(-c2oc3ncnc(NC[C@@H]4CCCO4)c3c2-c2ccccc2)cc1,–
20,CO[C@@H]1CC[C@H]1CNc1ncnc2[nH]c(-c3ccc(OCCN(C)C)cc3)c(-c3ccccc3)c12 (racemic),–
0.2,CN(C)CCOc1ccc(-c2oc3ncnc(NCC4SCCS4)c3c2-c2ccccc2)cc1,–
4,Fc1ccccc1-c1c(-c2ccc(OCCN3CCCC3)cc2)[nH]c2ncnc(NC[C@@H]3CCCO3)c12,–
6,c1ccc(-c2c(-c3ccc(OCCN4CCCC4)cc3)[nH]c3ncnc(NC[C@@H]4CCCO4)c23)cc1,–
8,CS(=O)(=O)c1ccc(-c2oc3ncnc(NC[C@@H]4CCCO4)c3c2-c2ccccc2)cc1,–
